Assay results as given in patent publication US20250255968A1, “INTRAVAGINAL DEVICES FOR DRUG DELIVERY” (priority 2011, published 2025).
Where a name gives a salt, the structure may show the parent alone.

Columns and labels:
Assay type in all cases: physicochemical
[1] = In vitro release of EVG, DPV and TFV from hydrophilic polyurethane tubing reservoir rings; conditions: for TFV steady-state release rate: in presence of DPV or EVG
Source text: Elvitegravir (EVG), TFV, and glycerol (63/5/32 wt % TFV/EVG/glycerol-water, where glycerol was premixed as a 33/2 wt % stock solution) was loaded into the lumen of 35 wt % swelling hydrophilic polyurethane single-segment tubing with 5.5 mm cross-sectional diameter and 0.7 mm wall thickness. […] Similarly, dapivirine (DPV) was formulated in various equilibrium swelling hydrophilic polyurethane tubing lumens (all with 5.5 mm cross-sectional diameter and 0.7 mm wall thickness) at 63/5/32 wt % TFV/DPV/glycerol-water (mean±SD, N=5). […] Both DPV and EVG rings described above were tested for in vitro release immediately after ring fabrication. It is known from above examples, as well as previously published work that amphiphilic and lipophilic compounds including DPV often are soluble in polyurethanes up to 20 wt %. Therefore, a ring delivering hydrophobic APIs, such as EVG or DPV, should show little or no lag time in releasing the drug after adequate storage time, since the API should partition into the tubing wall on ring storage. TFV release from HTPU 35 and 60% swelling rings was not noticeably affected by the presence of DPV and EVG (TFV steady-state release rates were approximately 13 and 22 mg/day, respectively).

[2] = In vitro release of IQP-0528 from hydrophobic tubing IVR; conditions: for 30 days; core 48 wt % drug/52 wt % glycerol in Tecoflex EG85A tubing preloaded with 4.7 wt % drug
Source text: An IVR as described in Examples 1, 2, 3, and 9 is manufactured by premixing hydrophobic small molecule API (such as IQP-0528, UC-781, or levonorgestrel) with non-swellable polymer (such as Tecoflex®) and titanium dioxide. The tubing is then extruded as described above using a single screw extruder and tubing crosshead. The tubing may or may not incorporate reinforced/braided tubing or metallic springs to mechanically support the wall. The tubing is then filled with the API and excipient(s) mixture and joined to make a ring as described above. […] The core is composed of 48 wt % drug and 52 wt % glycerol paste filled in a hydrophobic tubing (Tecoflex® EG85A) preloaded with 4.7 wt % drug. In this example, approximately 600 μg of IQP-0528 was released daily for 30 days.

[3] = TDF release from HydroThane IVR after storage at elevated temperature
Description: As a means of diminishing or eliminating API release lag-time, devices may be stored at elevated temperature ranging from 40° C. to 70° C., depending on drug stability, for a predetermined amount of time to accelerate diffusion of the API from the tubing lumen to the tubing wall. After a predetermined time/temperature storage, the API loading in the device wall be equilibrated and the device will show minimal or no lag-time in drug release. This approach works for APIs which show some solubility in the rate-controlling polymer. Also, in certain instances this approach may negate the need for an osmotic agent. […] The IVRs are incubated at elevated temperatures, for example 65° C. for 5 days. […] This minimal amount of TDF in tubing wall reduced the lag time for equilibrium drug release and about 2-3 mg of TDF was delivered on days 1-3.

[4] = In vitro TFV release from IVR with drug-impregnated polymeric core; conditions: HPU 60/TFV (40% w/w) core jacketed with HPU 20/TFV (5% w/w); sodium acetate buffer pH 4.2, 37° C., 77 days, after initial burst
Source text: The HPU 20/TFV was used to jacket HPU 60/TFV using a twin-screw extruder and crosshead die. Reservoir rods were cut to approximately 14 cm sections, of which the ends were joined using an O-ring butt-welding clamp and medical grade Tecoflex® 1-MP fast-crystallization polyurethane adhesive, (200-300 cps viscosity, solution of polyurethane based polymer in methyl ethyl ketone and methylene chloride) resulting in a ring with 50-60 mm outer diameter and 5-6 mm outer cross-sectional diameter. […] Several of these IVRs were incubated at 37° C. and in sodium acetate buffer (pH 4.2) for 77 days. Sink conditions were maintained throughout the entire experiment. […] (See FIG. 5.)

[5] = In vitro tenofovir release from single-segment reservoir IVR (HPLC); conditions: 35 wt % swelling Tecophilic HP-60D tubing IVR, TFV/glycerol 70/30 wt % core; pH 4.2 sodium acetate buffer, 37° C., 80 rpm
Description: (§1) In vitro tenofovir (TFV) release and IVR mechanical studies were conducted to evaluate device performance. IVRs were incubated in pH 4.2 sodium acetate buffer and placed in a 37° C., 80 rpm shaker for up to 120 days. Sink conditions were maintained throughout the entire experiment, and release media was changed daily. Quantification of amount of TFV released was determined using high performance liquid chromatography (HPLC) (aqueous mobile phase gradient method on reverse phase C18 column, Agilent 1200 series HPLC). Mechanical properties of the rings over time were measured by compressing rings 25% of their initial outer diameter at a rate of 1 mm/sec using an Instron 3342 mechanical testing system (Norwood, MA) with custom machined aluminum probe. The TFV release rapidly attained steady-state, and release was dependent on polymer equilibrium swelling. The 35 wt % polymer was able to maintain steady-state release through 105 days. Also, the ring mechanical properties changed little with time, even after all drug was released. (See FIG. 2.)

[6] = In vitro TFV release from Tecophilic HP-60D-35 IVR with or without osmotic agent glycerol
Description: as §1

[7] = In vitro drug release testing of dual-segment TFV/LNG IVR in aqueous buffer sink; conditions: hydrophilic tubing reservoir segment of dual-segment IVR
Description: Example 29B. In a further example, a TFV/glycerol/water (65/33/2 wt %) semi-solid paste was loaded into the hydrophilic tubing reservoir segment and LNG was dissolved in the hydrophobic solid core reservoir segment of a dual segment IVR made according to Example 29A (using similar polyurethane tubing). The resulting IVR was subjected to in vitro drug release testing in an aqueous buffer sink for 90 days.

For `Cc1cc(C)c(Nc2ccnc(Nc3ccc(C#N)cc3)n2)c(C)c1` [DPV, dapivirine], the DPV lag time ([1]; various hydrophilic polyurethane rings, tested immediately after fabrication) was “approximately two weeks”.
With `COc1cc2c(cc1Cc1cccc(Cl)c1F)c(=O)c(C(=O)O)cn2[C@H](CO)C(C)C` [EVG, Elvitegravir] the EVG release rate ([1]; for 28 days, unstored rings, 35 wt % swelling hydrophilic polyurethane tubing, 63/5/32 wt % TFV/EVG/glycerol-water) was “over 300 μg/day” and the EVG lag time ([1]; unstored rings, 35 wt % swelling hydrophilic polyurethane tubing) was “several-day lag time”.
With `Cc1cc(C)cc(C(=O)c2c(C(C)C)c(=O)[nH]c(=O)n2CC2CC2)c1` [IQP-0528] the IQP-0528 released daily [2] was “approximately 600 μg”.
In the case of `CC(C)OC(=O)OCOP(=O)(CO[C@H](C)Cn1cnc2c(N)ncnc21)OCOC(=O)OC(C)C` [TDF, tenofovir disoproxil fumarate], the “TDF concentration in tubing wall” value ([3]; HydroThane 25-93A IVR, TDF + sodium chloride (15 wt % of TDF), incubated 65° C. for 5 days) is reported as 5 mg/g polymer and the TDF delivered ([3]; on days 1-3, after 65° C. storage for 5 days) is reported as 2 to 3 mg.
For `C[C@H](Cn1cnc2c(N)ncnc21)OCP(=O)(O)O` [TFV, ({[(2R)-1-(6-amino-9H-purin-9-yl)propan-2-yl]oxy}methyl)phosphonic acid], the TFV release profile [4] was “zero-order fashion”, the “duration of maintained steady-state TFV release” value [5] was 105 days and the “time to steady state TFV release rate” value ([6]; 65/33/2 wt % TFV/glycerol/water paste (glycerol 33 wt %)) was no more than 3 days. For the same compound, the “time to steady state TFV release rate” value ([6]; 100% TFV powder in the core) was greater than 28 days, the “TFV steady-state release rate” value ([1]; HTPU 35% swelling rings) was “approximately 13 mg/day” and the “TFV steady-state release rate” value ([1]; HTPU 60% swelling rings) was roughly 22 mg/day. The “lag period before zero-order TFV release” value [7] was 1 days and the TFV release profile ([7]; TFV/glycerol/water 65/33/2 wt % paste, 90 days) was “Zero-order release”.
